In a melting point compilation (Tetko et al.; mined from patent text by program, amines drawn as free bases though some values may be those of a salt):

`CC(=O)Nc1nc(C#N)cs1` gave a melting point of 185 to 188 °C. Work on `COC(=O)CNc1cccc(C)c1` yielded a melting point of 40 °C. For `CC1=CC(O)C(OC(=O)c2ccc([N+](=O)[O-])cc2)C(C)(C)CC1=O` (stereo not drawn), the melting point was 148 to 150 °C. `NCC(=O)NCc1ccc(F)cc1` gave a melting point of 114 to 115 °C. Compound `COc1cccc(OS(=O)(=O)c2ccc(N3CCN(C)C3=O)cc2)c1` has a melting point of 111 to 113 °C. In the case of `COc1cccc(NC(=O)NC2N=C(c3ccccc3)c3cccc(C)c3N(C)C2=O)c1` (stereo not drawn), the melting point was 215 to 217 °C. `Cc1c(NC(=O)c2ccc(OC[C@@H]3CCCO3)cc2)ccc2cc(CNC[C@H]3CCCO3)cnc12` gave a melting point of 92 to 94 °C. With `NC(CCCCNC(=O)OCc1ccccc1)C(=O)N(Cc1ccccc1)Cc1ccccc1` (stereo not drawn) the melting point was 135 to 136 °C. In the case of `NCC(C(=O)O)c1c[nH]c2ccc(F)cc12` (stereo not drawn), the melting point was 244 to 245 °C. Work on `Cc1oc(-c2ccccc2)nc1Cc1cc2cc(Br)ccc2o1` yielded a melting point of 98 to 100 °C. `CCOC(=O)C(=CN(CC)c1ccc(C=O)s1)C(=O)OCC` showed a melting point of 45 °C. `O=c1ccc(-c2ccc(OCCCCl)cc2)n[nH]1` showed a melting point of 191 to 193 °C. For `Nc1ccc2cnn(-c3ccnc(N[C@H]4CC[C@H](O)CC4)n3)c2c1`, the melting point was 236 to 238 °C. Work on `COC(=O)C1CC(C#N)(c2ccc(OC)c3oc(C(C)C)nc23)CCC1=O` (stereo not drawn) yielded a melting point of 150 °C. Compound `C=C(Oc1cc(-n2c(=O)cc(C(F)(F)F)n(N)c2=O)c(F)cc1Cl)C(=O)OC` has a melting point of 66 °C. In the case of `CC(C)[C@H](N)C(=O)OCc1nc2c(N)nc3ccccc3c2n1CCCCNS(C)(=O)=O`, the melting point was 161 to 163 °C. Compound `CCCSc1cc2c(c3c1OC(C)(C)C3)C(c1cccc(C(=O)O)c1)=NC(C)(C)C2` has a melting point of 206 to 208 °C. For `Cc1ccc(-c2c(C)c(NC(=O)CC(C)(C)C)c(C)c3c2OCC3c2ccc(C(C)C)cc2)nc1` (stereo not drawn), the melting point was 228 to 229 °C. In the case of `O=C(NCCCO)C1=C(C(=O)Nc2ccc(Cl)cc2F)CCCC1`, the melting point was 138 °C. For `CC(C)CNc1cc2nnnn2c2cnccc12`, the melting point was 220 to 221 °C. Compound `O=c1cnc2c(NC(CO)CO)nc(SCc3cccs3)nc2[nH]1` has a melting point of 220 to 223 °C. `N#Cc1sc(N)c(C#N)c1N1CCCCC1` gave a melting point of 183 to 184 °C. `COc1ccc(-c2cc(C=O)cc3ccoc23)cc1` gave a melting point of 79 to 80 °C. In the case of `CCc1nc2c(-c3ccc(Cl)cc3Cl)nccn2c1C(C)O` (stereo not drawn), the melting point was 165 to 166 °C. In the case of `C=CC1=CC=C(OC)C(OC)([N+](=O)[O-])C1` (stereo not drawn), the melting point was 140 to 141 °C. In the case of `Cc1cccc(C)c1Oc1cc2c(cc1Cl)C=C(C(=O)O)C(C(F)(F)F)O2` (stereo not drawn), the melting point was 253 to 259 °C. `CCCC(=O)N(CCC)C1Cc2ccc(-c3ccc(=O)[nH]n3)cc2C1` (single isomer, unassigned; (+)) gave a melting point of 159 to 160 °C. In the case of `COC(=O)CCC(=O)c1ccc(F)cc1`, the melting point was 48 to 50 °C. Work on `CS(C)=Nc1cnc(Cl)cn1` yielded a melting point of 119 to 120 °C. `COc1cc2c(cc1OC)C(CBr)OCCC2` (stereo not drawn) gave a melting point of 44 to 45 °C. In the case of `CC(C)N(CC(O)COc1ccccc1C(=O)Nc1cccc2[nH]ccc12)C(C)C` (stereo not drawn), the melting point was 160 °C. For `CS(=O)(=O)N[C@@H]1CCCC[C@H]1Nc1nc(Nc2ccc3c(c2)CN(CCO)CCS3)ncc1Cl`, the melting point was 76 to 86 °C. `COc1cc(C(=O)CCCC2CCCCC2)c(OC)cc1Cl` gave a melting point of 80 to 81 °C. `COc1cc2cnc3c(c2cc1OC)Cc1c-3cc2c(c1CN(C)C)OCO2` showed a melting point of 205 to 207 °C. With `O=C1NCCc2ccccc2C1c1ccccc1` (stereo not drawn) the melting point was 95 to 96 °C. With `N#Cc1cccc(-c2nc(-c3ccc(C(N)=O)cc3)cc3cccnc23)c1` the melting point was 237 to 240 °C. In the case of `CCN(CC)c1nc2cc(-c3ccccc3C#N)ccc2[nH]1`, the melting point was 138 to 142 °C. Work on `CCOC(=O)Cn1nnc2cc(-c3ncc(C(F)(F)F)cc3Cl)ccc21` yielded a melting point of 127 to 129 °C. With `CCOC(=O)C(C)(C(C)=O)c1ccc([N+](=O)[O-])c(NC)c1C#N` (stereo not drawn) the melting point was 87 to 91 °C. `COc1ccc2sc(C(N)=O)c(Cl)c2c1` showed a melting point of 220 to 222 °C. Compound `CC1Cc2cc(Cl)ccc2C(c2ccc([N+](=O)[O-])cc2)=NN1` (stereo not drawn) has a melting point of 152 to 154 °C. For `COc1cc2ncc(N[C@@H]3C[C@@H]4C[C@H]3C[C@H]4O)nc2cc1OC`, the melting point was 190 to 192 °C. In the case of `O=Cc1ccc(-c2cccc(-c3ccnc4c(C(=O)c5cccs5)cnn34)c2)cc1`, the melting point was 156 to 158 °C. Compound `N#CCc1coc2ccc(Br)cc12` has a melting point of 120 °C. `CC(=O)OC(c1nccs1)(c1nccs1)C(F)(F)F` showed a melting point of 82 to 84 °C. `COC(=O)c1cc(F)c(N2CCN(C(C)=O)CC2)nc1Nc1ccc(F)cc1F` showed a melting point of 172 to 173 °C. `CSC(C(=O)N(C)C)c1cccc(C(=O)c2ccccc2)c1N` (stereo not drawn) showed a melting point of 153 to 155 °C. Compound `NC(=S)c1sccc1N` has a melting point of 98 to 99 °C. Work on `CC(C)(C)c1cc(-c2n[nH]c3ncccc23)cc(C(C)(C)C)c1O` yielded a melting point of 216 to 217 °C. `Cc1c(S(C)(=O)=O)c2ccccc2n1CC1=NCCN1` showed a melting point of 187 to 188 °C. Work on `O=C1CC(Cc2cccc(Cl)c2)CN1` (stereo not drawn) yielded a melting point of 117 to 119 °C. In the case of `Cn1c(=O)oc2cc(C(O)CBr)cnc21` (stereo not drawn), the melting point was 127 to 129 °C. For `COc1ccc(-c2ccc(C(N)=O)cc2)cc1OCCCCc1ccccc1`, the melting point was 180 to 182 °C. Work on `O=c1ccc(-c2ccc(F)cc2)nn1CCF` yielded a melting point of 145 °C. Work on `COc1ccc(-c2ccc(C(N)=O)cc2)cc1Br` yielded a melting point of 246 to 250 °C. Work on `CCN1CC(NC(=O)c2cc(Cl)c(N)cc2OC)C=N1` (stereo not drawn) yielded a melting point of 132 to 134 °C. `Cc1nc(C(=O)NC23CC4CC(CC(O)(C4)C2)C3)c(C)n1-c1ccccc1` gave a melting point of 215 to 220 °C. `CCCCCCCCCCCCSCC(O)CO` (stereo not drawn) gave a melting point of 53 to 54 °C. For `O=[N+]([O-])c1cn2c(n1)OC[C@@H](OCc1ccc(-c3nc4cc(OC(F)(F)F)ccc4[nH]3)cc1)C2`, the melting point was 98 to 99 °C. Compound `Cn1nnnc1C(C=CC=O)=C(c1ccc(F)cc1)c1ccc(F)cc1` has a melting point of 156 to 158 °C. In the case of `CCCCCCCCCCCCCCC(=O)C(=O)NCCCC(=O)OCC`, the melting point was 63 to 64 °C. Compound `CN(C)c1ccc(-c2cc3nccnc3[nH]2)cc1CCCO` has a melting point of 203 to 204 °C. For `Cc1c(-c2ccc3c(c2)C(N2Cc4ccccc4C2=O)C(O)C(C)(C)O3)c(=O)c1=O` (stereo not drawn), the melting point was > 250 °C. With `Cc1cc(C(N)=O)ncc1C(c1c(F)ccc(F)c1F)S(=O)(=O)c1ccc2ccoc2c1` (stereo not drawn) the melting point was 237 to 240 °C. `CCOc1cc2c(Nc3cc(OC)c(Cl)cc3Cl)c(C#N)cnc2cc1OCCOC` showed a melting point of 215 to 217 °C. `CCCCOc1cc(CO)cc(N)c1Cc1ccccc1` showed a melting point of 105 to 107 °C. `CN(C(=S)N[C@@H](Cc1ccc(NC(=O)c2c(Cl)cncc2Cl)cc1)C(=O)O)c1ccccc1C(=O)NCC1CCCCC1` gave a melting point of 175 °C. In the case of `Cc1ccc(-c2cc(C(F)(F)F)n3ncc(C#N)c3n2)cc1`, the melting point was 121 °C. `NCc1ccc(N2CCC2)cc1` gave a melting point of 58 to 60 °C. Work on `CCCCCCCCCCCCCCCCOCC(O)CN1CCC(C)CC1` (stereo not drawn) yielded a melting point of 84 to 85 °C. For `CCCN(c1ncnc2[nH]cnc12)n1cccc1`, the melting point was 181 to 183 °C. `CC(OC1CCCN(Cc2ncn[nH]2)C1c1ccccc1)c1cc(C(F)(F)F)cc(C(F)(F)F)c1` (stereo not drawn) showed a melting point of 182 to 183 °C. Compound `Cc1nc(NC(=O)Cc2ccsc2)c(Br)c(C)c1Br` has a melting point of 157 °C. In the case of `COc1ccccc1Oc1cc2c(=O)c(NC=O)coc2cc1NS(C)(=O)=O`, the melting point was 226 to 227 °C. Compound `CCOC(=O)/C(=C\c1ccc([N+](=O)[O-])cc1)P(=O)(OCC)OCC` has a melting point of 60 to 61 °C. In the case of `CCCCc1nnc2n1-c1sc3c(c1C(c1ccccc1Cl)=NC2)CCNC3`, the melting point was 224 °C. `CC(C)(C)OC(=O)[C@@H]1CCCN1C(=O)CNS(=O)(=O)c1cccc2cccnc12` gave a melting point of 150 to 153 °C. `COc1ccc(C(=O)Nc2cc(NC(=O)c3ccc(OCCCCl)cc3)ccc2C)cc1OC` showed a melting point of 186 to 187 °C. Work on `CN(C)C=Nc1sc(C=O)c(S(=O)(=O)c2ccccc2)c1C#N` yielded a melting point of 262 °C. With `O=C(Nc1ccccc1C(=O)NCCc1ncc[nH]1)c1ccc(C(F)(F)F)cc1` the melting point was 207 to 215 °C. For `Cn1c(C(F)(F)F)cc(=O)n(-c2nc(Cl)c(Cl)cc2F)c1=O`, the melting point was 113 to 115 °C. In the case of `C=CCC(=NO)C(C)=NNc1c(Cl)cc(C(F)(F)F)cc1Cl`, the melting point was 71 to 73 °C. In the case of `CC(C)(C)C(NC(=O)c1ccc(Cl)cc1)NC(=NC#N)NCc1ccc(Cl)cc1` (stereo not drawn), the melting point was 173 to 175 °C. In the case of `CCONC(=O)c1cccc(NC(C)=C2C(=O)OC(=O)C(C(C)=O)=C2O)c1`, the melting point was 162 to 164 °C. Compound `CC1=C(S(C)(=O)=O)C(c2ccc(Cl)c(Cl)c2)C2=C(CCC2=O)N1` (stereo not drawn) has a melting point of 218 to 220 °C. `COC(=O)C1=C(C)Nc2ccccc2SC1c1cccc(Cl)c1Cl` (stereo not drawn) showed a melting point of 190 to 191 °C. `CCOC(=O)Cc1ccc(N2Cc3ccccc3C2=N)cc1` showed a melting point of 204 to 206 °C. `CC(C)(C)C(=O)Nc1ccccc1-c1cc2ccccc2[nH]1` gave a melting point of 132 to 136 °C. Work on `CC(C)(C)OC(=O)c1nc2ccc(NCCCN3CCC(OC(c4ccccc4)c4ccccc4)CC3)nn2n1` yielded a melting point of 133 to 135 °C. `Cc1ccc(C(=O)Nc2ccc(CN3CCCC3)c(C(F)(F)F)c2)cc1Br` gave a melting point of 168 to 170 °C. With `NC1N=C(Cl)C=C(Cl)N1c1c([N+](=O)[O-])cc(C(F)(F)F)c(Cl)c1[N+](=O)[O-]` (stereo not drawn) the melting point was 199 to 200 °C. For `CN1C(c2ccc(F)cc2)=NC(C(F)(F)F)(C(F)(F)F)C1CC(=O)c1ccc(F)cc1` (stereo not drawn), the melting point was 145 to 147 °C. With `O=C(Nc1ccccc1)Nc1ccc(Cl)cc1C(=O)c1ccccc1` the melting point was 145 to 147 °C. Compound `NC(=O)c1cn(C(CO)CCc2cccc3ccccc23)cn1` (stereo not drawn) has a melting point of 138 to 140 °C. For `CSC(=NC#N)NS(=O)(=O)c1cc(Cl)ccc1Cl`, the melting point was 145 °C. Work on `Cc1c(I)nc2n1CCc1ccccc1C2OC1CCN(C)CC1` (stereo not drawn) yielded a melting point of 59 °C. `CCOC(=O)c1cc(C(=O)NC)nc(C(=O)NC)c1N` showed a melting point of 185 to 186 °C. In the case of `COc1cc(O)cc(Cl)c1`, the melting point was 94 to 96 °C. In the case of `CN(C)CCCNC(=O)Cn1cnc(-c2ccccc2)c1-c1ccccc1`, the melting point was 92 to 94 °C. In the case of `Cc1c(-c2ccccc2)n(-c2ccccc2Cl)c(-c2ccccc2)cc1=S`, the melting point was 271 to 275 °C. `O=C(O)c1cccnc1Nc1cccc(Cl)c1` showed a melting point of 197 to 199 °C. Compound `COC(=O)CCCCOc1ccc(CNC(=O)C2Cc3ccccc3N2S(=O)(=O)c2ccc(-c3cccc(C(F)(F)F)c3)cc2)cc1` (stereo not drawn) has a melting point of 50 °C. Work on `COC(=O)c1ccc2nnc(C(=O)NCc3ccc(Cl)cc3)c(O)c2c1` yielded a melting point of 308 to 310 °C.
